“And” between values parts separate entries of the source, which are not always exact repeats. Equal entries are not always repeated.
Experiments:
[1] = biological target: T1, luciferase (derived from Photinus pyralis of North America product firefly) (Photinus pyralis, UniProt P08659); test: Measurement of the bioluminescence spectra (luminescent spectrum of substrate with luciferase, ATP-Mg); format: biochemical; conditions: for color of the luminescence: FIG. 1; for luminescent wavelength (maximum wavelength of the bioluminescence spectrum): potassium phosphate buffer pH 8.0, substrate solution 2.5 mM, exposure 60 seconds
T1 construct: purchased Sigma-Aldrich Corporation or Promega KK
T1 sequence (P08659 whole entry): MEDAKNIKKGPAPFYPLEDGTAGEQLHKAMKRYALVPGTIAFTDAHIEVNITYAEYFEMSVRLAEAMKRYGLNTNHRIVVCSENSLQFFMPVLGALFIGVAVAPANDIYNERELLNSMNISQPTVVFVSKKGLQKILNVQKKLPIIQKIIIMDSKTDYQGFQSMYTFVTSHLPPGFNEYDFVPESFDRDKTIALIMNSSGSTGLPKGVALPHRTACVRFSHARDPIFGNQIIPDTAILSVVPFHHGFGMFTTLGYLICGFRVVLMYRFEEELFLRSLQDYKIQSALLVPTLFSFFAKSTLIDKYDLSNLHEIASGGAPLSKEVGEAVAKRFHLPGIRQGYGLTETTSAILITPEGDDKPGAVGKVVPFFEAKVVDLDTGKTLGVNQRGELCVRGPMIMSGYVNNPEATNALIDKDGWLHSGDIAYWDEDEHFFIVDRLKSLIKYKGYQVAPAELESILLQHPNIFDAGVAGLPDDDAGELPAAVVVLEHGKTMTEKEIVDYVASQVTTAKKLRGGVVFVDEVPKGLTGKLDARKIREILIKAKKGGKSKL
Method: Measurement of Luminescent Spectrum
They were measured using feeble luminescence fluorescent spectra device AB-1850 manufactured by ATTO Co., Ltd. All the measured spectra were the spectra which calibrated with the characteristic of the detector.
For the luciferase (derived from Photinus pyralis of North America product firefly), was used the recombination type manufactured by Sigma-Aldrich Corporation or Promega KK.
For ATP-Mg the product manufactured by Sigma-Aldrich Corporation was used.
The Substrate was weighted with an electronic balance, and it was diluted. The phosphate-buffered saline (50 mM, pH 6.0) was used in the case of the chemiluminescence measurement, and t-butanol was used in the case of the bioluminescence as a solvent.
The luciferase was diluted with Tris-HCl buffer solution (50 mM, pH 8.0 s) to become 1 μg/μl and divided. This was used as stocked solution, so that was diluted to be used each time. Note that, the stock solutions were stored in a freezer of −80 degrees Celsius.
ATP-Mg was diluted in the ultra pure water.
The solution of a potassium phosphate buffer (0.5 M, pH 8.0, 20 μl), the solution of substrate (2.5 mM, 20 μl) and enzyme solution (20 μl), then ATP-Mg solution (ten mM, 40 μl) were mixed in a 200 μL of a polystyrene tube, and measured the luminescent spectrum. The enzyme solution was used at the concentration of 17 μM, provided that enzymes at 1.7 μM and at 170 μM were used in the firefly luciferin (1) and the phenol type luciferin respectively. The exposure time for the measurement of the luminescent spectrum was 60 seconds, provided that the firefly luciferin was five seconds.

[2] = luciferin derivative, patent document 1; cited from earlier work
[3] = Photinus pyralis luciferase, ATP-Mg

| SMILES | color of the luminescence [1] | luminescent wavelength (maximum wavelength of the bioluminescence spectrum) [1, 3] | melting point | also measured |
| --- | --- | --- | --- | --- |
| CN(C)c1ccc(/C=C/C=C/C2=N[C@@H](C(=O)O)CS2)cc1 [analogs II, dimethyl aniline-diene type luciferin] | blue | 445 nm and > 680 nm |  |  |
| O=C(O)[C@H]1CSC(/C=C/c2cccc(O)c2)=N1 [analogs 9] |  |  | 163 to 165 °C (dec.) | luminescent activity as substrate ([1]; Photinus pyralis luciferase, ATP-Mg, pH 8.0): did not luminescent |
| O=C(O)[C@H]1CSC(/C=C/c2ccc(O)cc2)=N1 [analogs 8] |  | 520 nm | 138 to 140 °C (dec.) |  |
| CN(C)c1ccc(C2=N[C@@H](C(=O)O)CS2)cc1 [analogs IV, dimethyl aniline type luciferin] | red |  |  | luminescent wavelength (maximum wavelength of the bioluminescence spectrum) ([1]; Photinus pyralis luciferase, ATP-Mg, listed as IV): 680 nm and 445 nm; luminescent wavelength (maximum wavelength of the bioluminescence spectrum) ([1]; Photinus pyralis luciferase, ATP-Mg, listed as dimethyl aniline type luciferin): about 445 nm |
| Nc1ccc2nc(C3=N[C@@H](C(=O)O)CS3)sc2c1 [Aminoluciferin] |  |  |  | luminescence wavelength [2]: About 610 nm |
| CN(C)c1ccc(/C=C/C2=N[C@@H](C(=O)O)CS2)cc1 [analogs III, dimethyl aniline-monoene type luciferin] | yellow green | 565 nm |  |  |
| O=C(O)[C@H]1CSC(c2ccc(O)cc2)=N1 [analogs 7] |  | 415 nm | 200 to 204 °C (dec.) |  |

From US8709821B2, “Luminescent substrate for liciferase” (The University of Electro-Communications, priority 2008, dated 2014)
